Data: ChEMBL document CHEMBL1126805, “Synthesis and evaluation of a series of benzylaniline hydrochlorides as potential cytotoxic and antimitotic agents acting by inhibition of tubulin polymerization” (J Med Chem, 1993)

What was measured:
Assay type in all cases: functional
[1] = system: 786-0; test: Tested for cytotoxicity against 786-0 cell lines in renal cancer; conditions: Homo sapiens
[2] = system: OVCAR-5; test: Tested for cytotoxicity against OVCAR-5 cell lines in ovarian cancer; conditions: Homo sapiens
[3] = system: RPMI-8226; test: Tested for cytotoxicity against RPMI-8226 cell lines in leukemia; conditions: Homo sapiens
[4] = system: XF498; test: Tested for cytotoxicity against XF 498 cell lines in CNS cancer; conditions: Homo sapiens
[5] = system: SNB-78; test: Tested for cytotoxicity against SNB-78 cell lines in CNS cancer; conditions: Homo sapiens
[6] = system: CAKI-1; test: (§1) Tested for cytotoxicity against CAKI-1 cell lines in renal cancer; conditions: Homo sapiens
[7] = system: NCI-H522; test: (§2) Tested for cytotoxicity against NCI-H522 cell lines in non-small-cell lung cancer; conditions: Homo sapiens
[8] = system: NCI-H522; test: as §2; conditions: Homo sapiens; remark: listed apart in the source
[9] = system: SF-539; test: Tested for cytotoxicity against SF-539 cell lines in CNS cancer; conditions: Homo sapiens
[10] = system: M19-MEL; test: Tested for cytotoxicity against M19-MEL cell lines in melanoma; conditions: Homo sapiens
[11] = system: A498; test: Tested for cytotoxicity against A498 cell lines in renal cancer; conditions: Homo sapiens
[12] = system: U-251; test: Tested for cytotoxicity against U251 cell lines in CNS cancer; conditions: Homo sapiens
[13] = system: SW-620; test: Tested for cytotoxicity against SW-620 cell lines in colon cancer; conditions: Homo sapiens
[14] = system: M14; test: (§3) Tested for cytotoxicity against M14 cell lines in melanoma; conditions: Homo sapiens
[15] = system: OVCAR-4; test: Tested for cytotoxicity against OVCAR-4 cell lines in ovarian cancer; conditions: Homo sapiens
[16] = system: SK-MEL-5; test: Tested for cytotoxicity against SK-MEL-5 cell lines in melanoma; conditions: Homo sapiens
[17] = system: HL-60; test: Tested for cytotoxicity against human cancer cell lines HL-60(TB) (leukemia) cell line.
[18] = system: HCT-116; test: Tested for cytotoxicity against HCT116 cell lines in colon cancer; conditions: Homo sapiens
[19] = system: HOP-18; test: Tested for cytotoxicity against HOP-18 cell lines in non-small-cell lung cancer; conditions: Homo sapiens
[20] = system: SF-295; test: (§4) Tested for cytotoxicity against SF-295 cell lines in CNS cancer; conditions: Homo sapiens
[21] = system: SF-295; test: as §4; conditions: Homo sapiens; remark: listed apart in the source
[22] = system: HCT-15; test: Tested for cytotoxicity against HCT-15 cell lines in colon cancer; conditions: Homo sapiens
[23] = system: SK-MEL-2; test: Tested for cytotoxicity against SK-MEL-2 cell lines in melanoma; conditions: Homo sapiens
[24] = system: LOX IMVI; test: Tested for cytotoxicity against LOX IMVI cell lines in melanoma; conditions: Homo sapiens
[25] = system: ACHN; test: Tested for cytotoxicity against ACHN cell lines in renal cancer; conditions: Homo sapiens
[26] = system: SNB-19; test: Tested for cytotoxicity against SNB-19 cell lines in CNS cancer; conditions: Homo sapiens
[27] = system: IGROV-1; test: Tested for cytotoxicity against IGROV1 cell lines in ovarian cancer; conditions: Homo sapiens
[28] = system: SK-OV-3; test: Tested for cytotoxicity against SK-OV-3 cell lines in ovarian cancer; conditions: Homo sapiens
[29] = system: RXF 393; test: Tested for cytotoxicity against RXF-393 cell lines in renal cancer; conditions: Homo sapiens
[30] = system: UACC-257; test: Tested for cytotoxicity against UACC-257 cell lines in melanoma; conditions: Homo sapiens
[31] = system: Malme-3M; test: Tested for cytotoxicity against MALME-3M cell lines in melanoma; conditions: Homo sapiens
[32] = system: MOLT-4; test: Tested for cytotoxicity against MOLT-4 cell lines in leukemia; conditions: Homo sapiens
[33] = system: NCI-H322M; test: Tested for cytotoxicity against NCI-H322M cell lines in non-small-cell lung cancer; conditions: Homo sapiens
[34] = system: UACC-62; test: Tested for cytotoxicity against UACC-62 cell lines in melanoma; conditions: Homo sapiens
[35] = system: CAKI-1; test: as §1; conditions: Homo sapiens; remark: listed apart in the source
[36] = system: DMS-273; test: Tested for cytotoxicity against DMS 273 cell lines in small-cell lung cancer; conditions: Homo sapiens
[37] = system: M14; test: as §3; conditions: Homo sapiens; remark: listed apart in the source
[38] = system: K562; test: Tested for cytotoxicity against K-562 cell lines in leukemia; conditions: Homo sapiens
[39] = system: COLO 205; test: (§5) Tested for cytotoxicity against COLO 205 cell lines in colon cancer; conditions: Homo sapiens
[40] = system: NCI-H460; test: Tested for cytotoxicity against NCI-H460 cell lines in non-small-cell lung cancer; conditions: Homo sapiens
[41] = molecular target: Tubulin (Bos taurus, UniProt Q6B856+Q862F3); test: In vitro inhibition of bovine electrophoretically homogeneous tubulin polymerization.
[42] = system: NCI-H23; test: Tested for cytotoxicity against NCI-H23 cell lines in non-small-cell lung cancer; conditions: Homo sapiens
[43] = system: KM-20L2; test: Tested for cytotoxicity against KM20L2 cell lines in colon cancer; conditions: Homo sapiens
[44] = system: HOP-92; test: Tested for cytotoxicity against HOP-92 cell lines in non-small-cell lung cancer; conditions: Homo sapiens
[45] = system: LXFL 529; test: Tested for cytotoxicity against LXFL529 cell lines in non-small-cell lung cancer; conditions: Homo sapiens
[46] = system: OVCAR-8; test: Tested for cytotoxicity against OVCAR-8 cell lines in ovarian cancer; conditions: Homo sapiens
[47] = system: HL-60; test: Tested for cytotoxicity against HL-60 (TB) cell lines in leukemia; conditions: Homo sapiens
[48] = system: UO-31; test: Tested for cytotoxicity against UO-31 cell lines in renal cancer; conditions: Homo sapiens
[49] = system: EKVX; test: Tested for cytotoxicity against […] cell lines in non-small-cell lung cancer; conditions: Homo sapiens
[50] = system: KM12; test: Tested for cytotoxicity against KM12 cell lines in colon cancer; conditions: Homo sapiens
[51] = system: CCRF-CEM; test: Tested for cytotoxicity against CCRF-CEM cell lines in leukemia; conditions: Homo sapiens
[52] = system: DMS-114; test: Tested for cytotoxicity against DMS114 cell lines in small-cell lung cancer; conditions: Homo sapiens
[53] = system: COLO 205; test: as §5; conditions: Homo sapiens; remark: listed apart in the source
[54] = system: A549; test: Tested for cytotoxicity against A549/ATCC cell lines in non-small-cell lung cancer; conditions: Homo sapiens
[55] = system: HOP-62; test: Tested for cytotoxicity against HOP-62 cell lines in non-small-cell lung cancer; conditions: Homo sapiens
[56] = system: OVCAR-3; test: Tested for cytotoxicity against OVCAR-3 cell lines in ovarian cancer; conditions: Homo sapiens
[57] = system: DLD-1; test: Tested for cytotoxicity against DLD-1 cell lines in colon cancer; conditions: Homo sapiens
[58] = system: TK-10; test: Tested for cytotoxicity against TK-10 cell lines in renal cancer; conditions: Homo sapiens
[59] = system: HT-29; test: Tested for cytotoxicity against HT-29 cell lines in colon cancer; conditions: Homo sapiens
[60] = system: SF-268; test: Tested for cytotoxicity against SF-268 cell lines in CNS cancer; conditions: Homo sapiens
[61] = system: SN12C; test: Tested for cytotoxicity against SN12C cell lines in renal cancer; conditions: Homo sapiens
[62] = system: SNB-75; test: Tested for cytotoxicity against SNB-75 cell lines in CNS cancer; conditions: Homo sapiens
[63] = system: DMS-273; test: Tested for cytotoxicity against DMS273 cell lines in small-cell lung cancer; conditions: Homo sapiens

Sequence of Tubulin (Q6B856 whole entry): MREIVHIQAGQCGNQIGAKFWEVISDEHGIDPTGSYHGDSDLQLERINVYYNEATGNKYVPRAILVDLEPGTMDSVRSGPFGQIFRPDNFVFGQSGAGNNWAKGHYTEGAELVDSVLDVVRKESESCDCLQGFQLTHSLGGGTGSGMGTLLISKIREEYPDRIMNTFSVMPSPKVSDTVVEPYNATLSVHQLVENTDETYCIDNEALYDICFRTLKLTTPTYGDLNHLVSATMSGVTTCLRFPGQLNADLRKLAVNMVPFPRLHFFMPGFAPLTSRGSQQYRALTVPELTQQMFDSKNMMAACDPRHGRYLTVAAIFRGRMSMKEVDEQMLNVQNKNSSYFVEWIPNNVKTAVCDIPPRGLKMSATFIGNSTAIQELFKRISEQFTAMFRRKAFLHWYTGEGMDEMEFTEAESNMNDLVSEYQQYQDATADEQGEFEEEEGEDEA
Sequence of Tubulin (Q862F3 whole entry): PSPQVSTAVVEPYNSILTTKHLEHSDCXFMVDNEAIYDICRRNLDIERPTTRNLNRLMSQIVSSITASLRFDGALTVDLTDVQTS

## COc1cc(CNc2ccc(C)cc2)cc(OC)c1OC
[1]
  GI50: 0.324 µM
[2]
  GI50: 1.35 µM
[3]
  GI50: 0.437 µM
[4]
  GI50: 0.468 µM
[5]
  GI50: 1.1 µM
[6]
  GI50: 0.162 µM
[7]
  GI50: 0.204 µM
[8]
  GI50: 0.262 µM
[9]
  GI50: 0.316 µM
[10]
  GI50: 0.331 µM
[11]
  GI50: > 100 µM
[12]
  GI50: 0.331 µM
[13]
  GI50: 0.11 µM
[14]
  GI50: 0.292 µM
[15]
  GI50: 21.4 µM
[16]
  GI50: 0.912 µM
[17]
  GI50: 0.722 µM
[18]
  GI50: 0.575 µM
[19]
  GI50: 37.2 µM
[20]
  GI50: 0.233 µM
[21]
  GI50: 0.324 µM
[22]
  GI50: 0.245 µM
[23]
  GI50: 0.132 µM
[24]
  GI50: 0.851 µM
[25]
  GI50: 0.0977 µM
[26]
  GI50: 0.295 µM
[27]
  GI50: 0.708 µM
[28]
  GI50: 0.269 µM
[29]
  GI50: 0.112 µM
[30]
  GI50: > 100 µM
[31]
  GI50: 0.468 µM
[32]
  GI50: 0.427 µM
[33]
  GI50: 0.501 µM
[34]
  GI50: 0.575 µM
[35]
  GI50: 0.0132 µM
[36]
  GI50: 0.104 µM
[37]
  GI50: < 0.01 µM
[38]
  GI50: 0.1 µM
[39]
  GI50: 0.219 µM
[40]
  GI50: 0.214 µM
[41]
  IC50: 3.5 µM
[42]
  GI50: 0.407 µM
[43]
  GI50: 0.251 µM
[44]
  GI50: 18.6 µM
[45]
  GI50: 0.631 µM
[46]
  GI50: 0.759 µM
[47]
  GI50: 0.0891 µM
[48]
  GI50: 0.832 µM
[49]
  GI50: 0.741 µM
[50]
  GI50: 0.759 µM
[51]
  GI50: 0.282 µM
[52]
  GI50: 0.427 µM
[53]
  GI50: 0.214 µM
[54]
  GI50: 0.513 µM
[55]
  GI50: 0.282 µM
[56]
  GI50: 0.214 µM
[57]
  GI50: 0.575 µM
[58]
  GI50: > 100 µM
[59]
  GI50: 0.347 µM
[60]
  GI50: 0.912 µM
[61]
  GI50: 0.851 µM
[62]
  GI50: 0.389 µM
[63]
  GI50: 0.0933 µM
